From patent US20250339569A1, “CARBONIC ANHYDRASE IX LIGANDS” (priority 2021, published 2025) come the findings set out here.

Assay [1] concerns the target T1, human carbonic anhydrase IX (hCAIX-Fc) (Homo sapiens, UniProt Q16790).
T1 construct: purchased SinoBliological (Sino Biological) 10107-H02H
Description: Surface plasmon resonance assay with hCAIX-Fc. In kind it is binding. Particulars: 25° C.; for t1/2 category (activity): SPR dissociation half-life, hCAIX-Fc; for Kd: SPR, hCAIX-Fc captured, read-out: pKD category (activity) (converted). As to the method:
Surface plasmon resonance (SPR) studies were performed using a Biacore™ T200 SPR system (GE Healthcare Life Sciences). Briefly, polarized light is directed towards a gold-labeled sensor surface, and minimum intensity reflected light is detected. The angle of reflected light changes as molecules bind and dissociate.
Fc-fusion protein of human carbonic anhydrase IX (hCAIX-Fc, SinoBliological, Cat #10107-H02H) was captured on a Fc-capture chip (Biacore™ CM5 sensor chip coated with ˜300 RU of an Fc-binding peptide). Recombinant carbonic anydrase was diluted in Running Buffer (PBST, 0.1% DMSO) to a final concentration 100 or 200 nM and than flushed over the Fc-capture chip to immobilized ˜1000 RUs.
Stock solutions of test compounds were prepared by dissolving each compound in DMSO. DMSO stock solution were diluted 1:1000 in Running Buffer without DMSO. Further sequencial dilutions were made with Running Buffer containing 0.1% DMSO. SPR binding analyses were performed in Single Cycle Kinetic (SCK) mode at 25° C. Flow cell coated with the Fc-binding peptide only served as reference flowcell. After each SCK run, carbonic andydrase IX was removed with 10 mM glycine buffer, pH 1.5.
In between every three SCK measurements, a blank run with Running Buffer instead of test compound was included to correct for baseline drifts (double blanking methods).
Table 11 describes the protocol steps for Fc-fusion target capturing and assessment of the binding kinetics.
For each test compound, SPR raw data in the form of resonance units (RU) were plotted as sensorgrams using the Biacore™ T200 control software. The signal from the blank sensorgram was subtracted from that of the test compound sensorgram (blank corrected). The blank corrected sensorgram was corrected for baseline drift by subtracting the sensorgram of a SCK run without the test compound (running buffer only). The association rate (kon), dissociation rate (koff), dissociation constant (KD), and t1/2 were calculated from Blank-normalized SPR data using the 1:1 Langmuir binding model from the Biacore™ T200 evaluation software. Raw data and fit results were imported as text files in IDBS. The pKD value (negative decadic logarithm of dissociation constant) was calculated in the IDBS excel template.
Background: Surface plasmon resonance follows binding to a sensor surface in real time, without labels.

Assay [2] addresses T2, CAIX-expressing human HT-29 colorectal cancer cells (Homo sapiens, UniProt Q16790).
T2 construct: CAIX-expressing human HT-29 colorectal cancer cells; host or cells: HT-29 human colorectal cancer cells
The assay is described as follows: FACS binding assay (IC50 determination, competition with tracer 3BP-2776 or 3BP-4149). Particulars: 4° C., 1 hour, read-out: pIC50 category (activity) (converted). The procedure, abridged:
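HT-29 cells in FACS buffer (PBS, 1% FCS) at 500.000 cells/ml were exposed to compounds competing with a labelled tracer, with biotinylated compounds detected by 1 μg/mL APC-streptavidin for 30 min on ice. APC/Cy5 median fluorescence was read by flow cytometry and IC50 derived by 4PL fit.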
In general terms: In flow cytometry, cells or beads pass a laser one at a time.

The mark [3] stands for this setting: FACS binding assay, HT-29 cells, competition with tracer 3BP-4149 (3 nM, Cy5-labeled).
Setting [4] is: FACS competition on HT-29 cells, Tracer ID 3BP-2776 (10 nM, biotin-labeled).

Where two headings read alike, the source gives them in different places. Starred links: 1 amine or outer side, 2 acyl side, 3 side chain; linkers in the order of their positions; H or OH if unused. Positions of bridges follow the written chain, without caps; N, C: chain ends. Non-standard residues stand in square brackets, D forms with d. Residues, ends and D or L forms follow the SMILES beside them. *: point of attachment. Phe(3-NHCO(CH2)3SO2NH2) = N[C@@H](Cc1cccc(NC(=O)CCCS(N)(=O)=O)c1)C(=O)O; X3 = O=C(O)CN1CCN(CC(=O)O)CCN(CC(=O)NCCCOCCOCCOCCCN*)CCN(CC(=O)O)CC1; DOTA = O=C(O)CN1CCN(CC(=O)O)CCN(CC(=O)*)CCN(CC(=O)O)CC1; Phe(3,4-Cl2) = N[C@@H](Cc1ccc(Cl)c(Cl)c1)C(=O)O; Phe(4-NH2) = Nc1ccc(C[C@H](N)C(=O)O)cc1; mXylylene = c1cc(C[*:1])cc(C[*:2])c1; X36 = NS(=O)(=O)Cc1ccc(C(=O)*)cc1; X2 = O=C(CN1CCC(N[*:1])CC1)[*:2]; X1 = O=C(CN1CCN([*:1])CC1)[*:2]; Suc = O=C(CCC(=O)[*:2])[*:1]; Isovaleryl = CC(C)CC(=O)*; X67 = CS(=O)(=O)CC(=O)*; Dap = NC[C@H](N)C(=O)O

Turning to `CC(C)C[C@@H]1NC(=O)[C@H](Cc2cccc(NC(=O)C[C@@H]3NC(=O)CNC3=O)c2)NC(=O)[C@H](CC(=O)O)NC(=O)[C@H]2CCCN2C(=O)[C@H](CCC(=O)O)NC(=O)[C@@H](NC(=O)[C@H](Cc2ccc(O)cc2)NC(=O)[C@@H](NC(=O)CN2CCC(NC(=O)CN3CCN(CC(=O)O)CCN(CC(=O)O)CCN(CC(=O)O)CC3)CC2)C(C)C)CSCc2cccc(c2)CSC[C@@H](C(N)=O)NC(=O)[C@H](CO)NC(=O)[C@H](Cc2c[nH]c3ccccc23)NC(=O)[C@H]([C@@H](C)O)NC1=O` [3BP-4288], in assay [1], the “t1/2 category (activity)” value is on record as “D (t1/2≤2.0 minutes)” and the Kd was 10 to 79.4 nM. Moreover, in assay [2] (setting [3]), the IC50 was 100 to 794 nM. For `CC(C)C[C@@H]1NC(=O)[C@H](Cc2ccc(NC(=O)CCC(=O)O)cc2)NC(=O)[C@H](CC(=O)O)NC(=O)[C@H]2CCCN2C(=O)[C@H](CCC(=O)O)NC(=O)[C@@H](NC(=O)[C@H](Cc2ccc(O)cc2)NC(=O)[C@@H](NC(=O)CN2CCC(NC(=O)CN3CCN(CC(=O)O)CCN(CC(=O)O)CCN(CC(=O)O)CC3)CC2)C(C)C)CSCc2cccc(c2)CSC[C@@H](C(N)=O)NC(=O)[C@H](CO)NC(=O)[C@H](Cc2c[nH]c3ccccc23)NC(=O)[C@H]([C@@H](C)O)NC1=O` [3BP-4356] ({DOTA}-[X2]VYCE[dP]D[Phe(4-NH2)](Suc)LTWSC-NH2; linker 4-13 via mXylylene), in that order: “D (t1/2≤2.0 minutes)”, 10 to 79.4 nM and 10 to 79.4 nM.

For the molecule `CC(=O)N[C@H](C(=O)N[C@@H](Cc1ccc(O)cc1)C(=O)N[C@H]1CSCc2cccc(c2)CSC[C@@H](C(N)=O)NC(=O)[C@H](CO)NC(=O)[C@H](Cc2c[nH]c3ccccc23)NC(=O)[C@H]([C@@H](C)O)NC(=O)[C@H](CC(C)C)NC(=O)[C@H](Cc2c[nH]c3ccccc23)NC(=O)[C@H](CC(=O)O)NC(=O)[C@H]2CCCN2C(=O)[C@H](CCC(=O)O)NC1=O)C(C)C` [3BP-3565] (Ac-VYCE[dP]DWLTWSC-NH2; linker 3-12 via mXylylene), in assay [1], the “t1/2 category (activity)” value is listed as “A (t1/2>15.0 minutes)” and the Kd is under 10 nM. Moreover, the IC50 in assay [2] (setting [4]) is under 10 nM. For the molecule `CC(C)C[C@@H]1NC(=O)[C@H](Cc2c[nH]c3ccccc23)NC(=O)[C@H](CC(=O)O)NC(=O)CNC(=O)[C@H](CCC(=O)O)NC(=O)[C@@H](NC(=O)[C@H](Cc2ccc(O)cc2)NC(=O)[C@@H](NC(=O)CCC(=O)NCCCOCCOCCOCCCNC(=O)CN2CCN(CC(=O)O)CCN(CC(=O)O)CCN(CC(=O)O)CC2)C(C)C)CSCc2cccc(c2)CSC[C@@H](C(N)=O)NC(=O)[C@H](CCC(N)=O)NC(=O)[C@H](Cc2c[nH]c3ccccc23)NC(=O)[C@H]([C@@H](C)O)NC1=O` [3BP-3328] ({X3-Suc}-VYCEGDWLTWQC-NH2; linker 3-12 via mXylylene), the Kd in assay [1] was under 10 nM. Regarding `CC(C)C[C@@H]1NC(=O)[C@H](Cc2ccc(Cl)c(Cl)c2)NC(=O)[C@H](CC(=O)O)NC(=O)[C@H]2CCCN2C(=O)[C@H](CCC(=O)O)NC(=O)[C@@H]2CSCc3cccc(c3)CSC[C@@H](C(N)=O)NC(=O)[C@H](CNC(=O)C[C@H](NC(=O)[C@@H](NC(=O)CN3CCC(NC(=O)CN4CCN(CC(=O)O)CCN(CC(=O)O)CCN(CC(=O)O)CC4)CC3)C(C)C)C(=O)N2)NC(=O)[C@H](Cc2c[nH]c3ccccc23)NC(=O)[C@H]([C@@H](C)O)NC1=O` [3BP-4439] ({DOTA}-[X2]VDCE[dP]D[Phe(3,4-Cl2)]LTW[Dap]C-NH2; lactam 3-12; linker 4-13 via mXylylene), in assay [1], the “t1/2 category (activity)” value was “B (t1/2 between 5.1 and 15.0 minutes)”; the Kd is under 10 nM. Regarding `CC(C)C[C@@H]1NC(=O)[C@H](Cc2ccc(NC(=O)c3ccc(CS(N)(=O)=O)cc3)cc2)NC(=O)[C@H](CC(=O)O)NC(=O)[C@H]2CCCN2C(=O)[C@H](CCC(=O)O)NC(=O)[C@@H](NC(=O)[C@H](Cc2ccc(O)cc2)NC(=O)[C@@H](NC(=O)CN2CCC(NC(=O)CN3CCN(CC(=O)O)CCN(CC(=O)O)CCN(CC(=O)O)CC3)CC2)C(C)C)CSCc2cccc(c2)CSC[C@@H](C(N)=O)NC(=O)[C@H](CO)NC(=O)[C@H](Cc2c[nH]c3ccccc23)NC(=O)[C@H]([C@@H](C)O)NC1=O` [3BP-4399] ({DOTA}-[X2]VYCE[dP]D[Phe(4-NH2)](X36)LTWSC-NH2; linker 4-13 via mXylylene), in assay [2] (setting [3]), the IC50 was 10 to 79.4 nM.

As for `CC(C)C[C@@H]1NC(=O)[C@H](Cc2cccc(NC(=O)CCCS(N)(=O)=O)c2)NC(=O)[C@H](CC(=O)O)NC(=O)[C@H]2CCCN2C(=O)[C@H](CCC(=O)O)NC(=O)[C@@H](NC(=O)[C@H](CO)NC(=O)CN2CCN(C(=O)CN3CCN(CC(=O)O)CCN(CC(=O)O)CCN(CC(=O)O)CC3)CC2)CSCc2cccc(c2)CSC[C@@H](C(N)=O)NC(=O)[C@H](CO)NC(=O)[C@H](Cc2c[nH]c3ccccc23)NC(=O)[C@H]([C@@H](C)O)NC1=O` [3BP-4450] ({DOTA}-[X1]SCE[dP]D[Phe(3-NHCO(CH2)3SO2NH2)]LTWSC-NH2; linker 3-12 via mXylylene), the IC50 in assay [2] (FACS binding assay, HT-29 cells, competition with tracer 3BP-2776 (10 nM, biotin-labeled)) is under 10 nM. As to `CC(=O)N[C@H](C(=O)N[C@@H](Cc1ccc(O)cc1)C(=O)N[C@H]1CSCc2cccc(c2)CSC[C@@H](C(N)=O)NC(=O)[C@H](CCC(N)=O)NC(=O)[C@H](Cc2c[nH]c3ccccc23)NC(=O)[C@H]([C@@H](C)O)NC(=O)[C@H](CC(C)C)NC(=O)[C@H](Cc2c[nH]c3ccccc23)NC(=O)[C@H](CC(=O)O)NC(=O)[C@@H](C)NC(=O)[C@H](CCC(=O)O)NC1=O)C(C)C` [3BP-3046] (Ac-VYCE[dA]DWLTWQC-NH2; linker 3-12 via mXylylene), in assay [2] (setting [4]), the IC50 is under 10 nM. On the same count and under the same terms, the same measure for `CC(C)C[C@@H]1NC(=O)[C@H](Cc2c[nH]c3ccccc23)NC(=O)[C@@H]2CCCCNC(=O)CC[C@H](NC1=O)C(=O)N[C@@H](Cc1c[nH]c3ccccc13)C(=O)N[C@@H](CO)C(=O)N[C@H](C(N)=O)CSCc1cccc(c1)CSC[C@H](NC(=O)[C@H](Cc1ccc(O)cc1)NC(=O)[C@@H](NC(=O)CN1CCC(NC(=O)CN3CCN(CC(=O)O)CCN(CC(=O)O)CCN(CC(=O)O)CC3)CC1)C(C)C)C(=O)N[C@@H](CCC(=O)O)C(=O)N1CCC[C@@H]1C(=O)N2` [3BP-3933] ({DOTA}-[X2]VYCE[dP]KWLEWSC-NH2; linker 4-13 via mXylylene; lactam 7-10): 10 to 79.4 nM. As to `CC(C)CC(=O)Nc1ccc(C[C@@H]2NC(=O)[C@H](CC(=O)O)NC(=O)[C@H]3CCCN3C(=O)[C@H](CCC(=O)O)NC(=O)[C@@H](NC(=O)[C@H](Cc3ccc(O)cc3)NC(=O)[C@@H](NC(=O)CN3CCC(NC(=O)CN4CCN(CC(=O)O)CCN(CC(=O)O)CCN(CC(=O)O)CC4)CC3)C(C)C)CSCc3cccc(c3)CSC[C@@H](C(N)=O)NC(=O)[C@H](CO)NC(=O)[C@H](Cc3c[nH]c4ccccc34)NC(=O)[C@H]([C@@H](C)O)NC(=O)[C@H](CC(C)C)NC2=O)cc1` [3BP-4348] ({DOTA}-[X2]VYCE[dP]D[Phe(4-NH2)](Isovaleryl)LTWSC-NH2; linker 4-13 via mXylylene), in assay [2] (setting [3]), the IC50 is 100 to 794 nM. Take `CC(C)C[C@@H]1NC(=O)[C@H](Cc2ccc(NC(=O)CS(C)(=O)=O)cc2)NC(=O)[C@H](CC(=O)O)NC(=O)[C@H]2CCCN2C(=O)[C@H](CCC(=O)O)NC(=O)[C@@H](NC(=O)[C@H](Cc2ccc(O)cc2)NC(=O)[C@@H](NC(=O)CN2CCC(NC(=O)CN3CCN(CC(=O)O)CCN(CC(=O)O)CCN(CC(=O)O)CC3)CC2)C(C)C)CSCc2cccc(c2)CSC[C@@H](C(N)=O)NC(=O)[C@H](CO)NC(=O)[C@H](Cc2c[nH]c3ccccc23)NC(=O)[C@H]([C@@H](C)O)NC1=O` [3BP-4360] ({DOTA}-[X2]VYCE[dP]D[Phe(4-NH2)](X67)LTWSC-NH2; linker 4-13 via mXylylene): the IC50 in assay [2] (setting [3]) is 100 to 794 nM.
